Each structure is given as a SMILES string.

The nature of the data set: Human HepG2 cell viability assay in 384 well format. The format is toxicity, cell-based. Set-up: dose 125 nL, time 70.5 hour; concentration not given beside the values. As to conditions: HepG2 cells, read-out: Inhibition.
Consider `O=C(NC1CC1)N(CCc1ccccc1)C1CCOC1` (configuration not stated), for which the cytotoxicity at 70.5 h came to 12.1%. For `Cc1cc(CS(=O)(=O)C(C)c2ccc(F)cc2)on1` (configuration not stated), the cytotoxicity at 70.5 h is -5.55%. With `CN(CCc1ccccn1)C(=O)C(c1cccnc1)N1CCOCC1` (configuration not stated) the figure was -1.97%; with `Cc1cnn(CC2CCCN2Cc2noc(-c3ccccc3)n2)c1` (configuration not stated), -9.63%. For `COCCN1C[C@@H](C)[C@@]2(COCCN(C(=O)c3ccoc3)C2)C1`, the cytotoxicity at 70.5 h was determined as 1.95%.

Take `O=C(CCNC(=O)c1cnccn1)Nc1ncc[nH]1`: the cytotoxicity at 70.5 h is -31.8%. With `O=C([C@@H]1CCO[C@@H]2CCN(CC3CCOCC3)C[C@H]21)N1CCCO1` the figure was 46.7%. Consider `Cc1cc(C)nc(Nc2cncc(C3CCCN(S(C)(=O)=O)C3)n2)n1` (configuration not stated), for which the cytotoxicity at 70.5 h turned out to be 33.8%.

Take `COCCC(=O)Nc1cnn(COc2ccc(F)cc2Cl)c1`: the cytotoxicity at 70.5 h came to 27.4%. On to `OC[C@H]1CC[C@]2(CC1)CN(Cc1ccsc1)Cc1ccccc1O2`, for which the cytotoxicity at 70.5 h was found to be 7.87%. Take `Cc1cccc2c1cnn2CCCNC(=O)c1ccnn1C`: the cytotoxicity at 70.5 h was -12.7%. With `COc1ccc2cccc(CC(=O)NCc3nccc(N)n3)c2c1` the figure was -2.39%. With `Cc1cnn(CCC(=O)N2CCN(c3ccc(C#N)cn3)CC2)c1` the figure was -3.08%. For `CCN(CC(=O)N(C)C)C(=O)C(C)(C)c1ccc2c(c1)OCCO2`, the cytotoxicity at 70.5 h is -8.05%.

With `CC(=O)N1CCC2(CCCN(S(=O)(=O)c3ccccc3)C2)C1` (configuration not stated), the cytotoxicity at 70.5 h was 20%. Regarding `CNC(=O)C1CCCCN1C(=O)c1cn(CCOC)c2ccccc12` (configuration not stated), the cytotoxicity at 70.5 h amounted to 0.571%. Under `CC(C)[C@@H]1CN(Cc2cnc(C3CCCCC3)nc2)C[C@H]1C(=O)O` stands 8.1%.

On to `CC(=O)N(C)C1CCN(C(=O)c2cccc3c2ccn3C)CC1`, for which the cytotoxicity at 70.5 h amounted to 24.8%. Under `Cc1cc(NC(=O)NCCC(=O)N2CCCc3ccccc32)no1` stands -6.7%; under `Cc1ccc(C)c(OCCN2CCC(N3CCNC3=O)CC2)c1`, -3.76%. With `COc1ccc(CNC[C@H]2COCc3nc4cccnc4n32)cn1` the figure was -6.49%. With `CC(C(=O)NCCN1CCN(C)CC1)n1cncn1` (configuration not stated) the figure was -7.19%. `CCOc1ncccc1CNCc1c(C(C)C)nn(C)c1N(C)C`: the cytotoxicity at 70.5 h was 57.6%. Regarding `Cc1ncc(-c2ccnc(N3CCCCC3)n2)c(=O)[nH]1`, the cytotoxicity at 70.5 h is -7.09%. `c1cnc(N2CCCC(NCc3cccc4c3OCCO4)C2)nc1` (configuration not stated): the cytotoxicity at 70.5 h came out at 3.71%. Take `CCn1cnnc1CNS(=O)(=O)N1CCCC1c1ccc(C)o1` (configuration not stated): the cytotoxicity at 70.5 h was -4.31%. For the compound `O=C(NC1CC1)N1CCOC2(CCCN(c3cccc(F)c3)C2)C1` (configuration not stated), the cytotoxicity at 70.5 h was -3.8%. Turning to `COCCCNC(=O)NCc1ccc(N2CCOC(C)C2)nc1` (configuration not stated), the cytotoxicity at 70.5 h was 17.1%.

Regarding `COc1cccc2c1OCCCN(Cc1ccc(C(N)=O)c(=O)[nH]1)C2`, the cytotoxicity at 70.5 h is -8.27%. As to `CCC(CNC1CCN(C(C)=O)CC1)Oc1cccc(C)c1` (configuration not stated), the cytotoxicity at 70.5 h is -6.04%. `COc1ccnc(N2CCN(C(=O)c3cnc(C4CC4)s3)CC2)n1`: the cytotoxicity at 70.5 h was -5.21%. On to `CC(C)c1nc(C2CCCN(c3nccc(C(F)(F)F)n3)C2)no1` (configuration not stated), for which the cytotoxicity at 70.5 h was -2.52%. As to `O=C(C1CCOC1)N1CCC2(CC1)COC2` (configuration not stated), the cytotoxicity at 70.5 h was -7.79%. Under `CC(=O)N1CCCC1C(=O)NCCOc1ccc(C(C)C)cc1` (configuration not stated) stands -1.19%.

Consider `CO[C@@H]1CC[C@H]2[C@H]1OCCN2C(=O)COc1ccc(C)cc1`, for which the cytotoxicity at 70.5 h is -4.98%. As for `CN(CCO)Cc1cc(Cl)ccc1OCC(O)CN1CCCCCC1` (configuration not stated), the cytotoxicity at 70.5 h was -14.1%.

On to `Cn1cc(C(=O)CC2CCCN2C(=O)c2n[nH]c3ccccc23)cn1` (configuration not stated), for which the cytotoxicity at 70.5 h is 8.22%. As to `COc1ccc(C2=CCN(C(=O)C3CCN(C)C(=O)C3)CC2)cc1` (configuration not stated), the cytotoxicity at 70.5 h was -8.88%. Consider `COc1cc(CNCc2ccc(NC(=O)NC(C)C)cc2)cc(OC)c1`, for which the cytotoxicity at 70.5 h was determined as 2.03%. Consider `COc1cc(C)c(S(=O)(=O)CC(=O)N(C)C(C)C)cc1OC`, for which the cytotoxicity at 70.5 h is -5.84%. Under `COCC(=O)N1CC[C@@H]2CN(Cc3cccnc3)S(=O)(=O)[C@@H]2CC1` stands -2.46%.

Regarding `O=C(c1cc(-c2ccco2)nc2c(Cl)cccc12)N1CCS(=O)(=O)CC1`, the cytotoxicity at 70.5 h was -11.9%. Take `CC(Cc1ccccn1)N(C)C(=O)c1ncc[nH]1` (configuration not stated): the cytotoxicity at 70.5 h was -8.42%. Under `CCOCC(=O)N1CCc2c(CN(C)C)nn(C(C)C)c2C1` stands -4.01%; under `CSC1(CNc2ccc(Br)cn2)CCOCC1`, -2.33%. With `O=C(c1csc(-c2ncccn2)n1)N1CCCC1Cn1cccn1` (configuration not stated) the figure was 22.5%. Turning to `O=C(Cn1cccn1)N1CCC(Oc2cnccn2)CC1`, the cytotoxicity at 70.5 h is -6.46%. Under `CCOCC1CN(CCOCc2ccccc2)Cc2c1cnn2C` (configuration not stated) stands -3.18%.

For `O=C(c1ccc[nH]1)N1C[C@H](OCc2ccccn2)[C@H]2COC[C@H]21`, the cytotoxicity at 70.5 h is -5.92%.

With `CCc1nc(CN2CCCN(C(=O)C(C)COC)CC2)cs1` (configuration not stated), the cytotoxicity at 70.5 h was -2.68%.

Take `Cc1nc([C@@H]2C[C@@H]3CCN(C(=O)c4occc4C)C[C@H]3O2)no1`: the cytotoxicity at 70.5 h was found to be 23.8%.

Regarding `COc1ccc(C2CCN(S(=O)(=O)CCCC#N)CC2)cc1`, the cytotoxicity at 70.5 h was -9.02%.

Turning to `CC1(C)[C@H](Cc2cc(CN3CCCCC3)on2)C[C@@H]1NS(C)(=O)=O`, the cytotoxicity at 70.5 h is -4.26%. For the compound `CS(=O)(=O)NCc1cnc2n1CCN(Cc1ccsc1)CC2`, the cytotoxicity at 70.5 h was found to be 8.08%. On to `CN(C)c1ccc(NC(=O)C2CN(Cc3ccccc3)CCO2)cn1` (configuration not stated), for which the cytotoxicity at 70.5 h was -3.21%.

Turning to `COC1CCN(C(=O)c2csc(-c3ccccc3F)n2)CC1`, the cytotoxicity at 70.5 h was -4.85%. Consider `Cc1c(C)n(CC(O)CN2CCC(C)CC2)c2c(Cl)cccc12` (configuration not stated), for which the cytotoxicity at 70.5 h came out at 14.8%.

As to `CCOCCOC(C)C(=O)Nc1nccn1Cc1ccccc1` (configuration not stated), the cytotoxicity at 70.5 h was -15%. Turning to `CCCc1ccc(C(=O)N2CCc3c(nc(N(C)C)[nH]c3=O)C2)cc1`, the cytotoxicity at 70.5 h was -5.16%. As to `COCCNC(=O)CN(C)CCn1nc2ccccn2c1=O`, the cytotoxicity at 70.5 h was -5.55%.

In the case of `FC(F)(F)C1CN(Cc2cccc(-c3ccccn3)c2)CCO1` (configuration not stated), the cytotoxicity at 70.5 h was -6.31%.

As to `CS(=O)(=O)N1CCC(CNc2c(Cl)cccc2C#N)CC1`, the cytotoxicity at 70.5 h is -1.91%. Take `CCc1cc(C(=O)N2CCCC(c3[nH]ncc3S(C)(=O)=O)C2)no1` (configuration not stated): the cytotoxicity at 70.5 h was -7.59%.

For the compound `CC(C)C1CN(Cc2nccn2C(C)C)CCC(=O)N1CC1CC1` (configuration not stated), the cytotoxicity at 70.5 h was determined as 0.0298%.

Take `CCOc1c(Cl)cc(/C=C/c2ncc(C(=O)O)s2)cc1OC`: the cytotoxicity at 70.5 h is -18.4%. For `Cc1cc(OC(F)F)c(C(=O)NCC(O)c2cccc(F)c2)s1` (configuration not stated), the cytotoxicity at 70.5 h turned out to be 6.81%. In the case of `Cc1cc(C2CCCN2Cc2ccc(C(=O)Nc3nccs3)cc2)on1` (configuration not stated), the cytotoxicity at 70.5 h was -2.76%.

As to `CNc1nccnc1C1CN(C(=O)c2c[nH]cn2)CCO1` (configuration not stated), the cytotoxicity at 70.5 h amounted to 3.73%.

For the compound `Cc1[nH]nc(CCC(=O)N2CCc3ncnc(NCCO)c3CC2)c1C`, the cytotoxicity at 70.5 h was -12.5%. On to `COc1ccc(Cl)cc1S(=O)(=O)N(C)CC(=O)Nc1ccon1`, for which the cytotoxicity at 70.5 h was -12%. Under `CCc1noc(CN2CCC(C(=O)Nc3cnn(CC)c3)CC2)n1` stands -10.6%; under `COCCN1CCO[C@@H]2CN(S(=O)(=O)c3cccnc3)C[C@@H]2C1`, 3.84%. With `O=C(N[C@@H]1CN(c2ncccn2)C[C@@H]2CCCO[C@@H]21)c1ccnnc1` the figure was -6.03%; with `CN(Cc1ccc(F)cc1)CC1(O)CCN(C(=O)c2cccn2C)C1` (configuration not stated), -10.7%; with `CN(C)Cc1ccc(CNC(=O)NCC2(C)CCCS2)cc1` (configuration not stated), 7.26%. Under `COc1ccc(C2CNCCN2C(=O)c2nccc3ccccc23)cc1` (configuration not stated) stands 5.97%. With `CCc1cc(=O)n(CC(=O)N2CCC(C)CC2)c(-c2cccc(F)c2)n1`, the cytotoxicity at 70.5 h is -3.1%.

`Cc1cnn(CCC(=O)N2CCN(c3nc(C)cs3)CC2)c1`: the cytotoxicity at 70.5 h is 30.3%.

For the compound `Cc1nc(CN2CCC3(CCN(Cc4cnn(C)c4)CC3)C2=O)cs1`, the cytotoxicity at 70.5 h came to 10.4%. Consider `CN1CC[C@H]2[C@H](C[C@@H](Cn3cncn3)N2c2nccs2)C1`, for which the cytotoxicity at 70.5 h was -8.05%. As to `COc1ccc2oc(C(C)NC(=O)NCC(C)(C)C(N)=O)c(C)c2c1` (configuration not stated), the cytotoxicity at 70.5 h is 23.4%. With `COc1cc(S(=O)(=O)N2C[C@@H](C)[C@@](C)(O)C2)c(C)cc1C` the figure was 0.245%; with `CCN1CCN(c2ccc(F)cc2C(C)NCc2ccccn2)CC1` (configuration not stated), 13.7%; with `CC1CC(=O)c2cc(C(=O)N3CCc4ccccc4C3)c(=O)[nH]c2C1` (configuration not stated), -2.25%. `O=C(c1cc2c(s1)CCN2C(=O)C1CC1)N1CCCC1`: the cytotoxicity at 70.5 h is -4.7%.

For `CC(C)Cc1n[nH]c(C2CC(=O)N(CC(C)C)C2)n1` (configuration not stated), the cytotoxicity at 70.5 h is -5.1%. With `Cc1cccc(COc2ccccc2C(=O)N2CCC(C(N)=O)CC2)c1`, the cytotoxicity at 70.5 h came out at 4.8%.

With `c1ccc(-c2cc(NCCCC3CCOC3)n3nccc3n2)cc1` (configuration not stated), the cytotoxicity at 70.5 h was -0.688%. With `Cc1nc(C)n(CC2CCCN2Cc2nc(-c3ccoc3)no2)n1` (configuration not stated) the figure was -11.7%; with `CN(C)[C@H]1CN(C(=O)CCc2cccc(F)c2)C[C@@H]1C1CC1`, -5.67%. `COCC(=O)N1CC[C@H]2OCC[C@@]2(c2nc(C)no2)C1`: the cytotoxicity at 70.5 h was determined as 12.4%. With `CCc1nc(C)c(C(=O)NCCN2CCCC2)s1` the figure was -5.7%; with `CCc1nc(CN(C)C2CCN(CCc3cccs3)C2)no1` (configuration not stated), -6.05%; with `CN(C)CCO[C@@H]1CC[C@H]2[C@H]1OCCN2C(=O)c1ccccc1F`, -10.8%. With `O=C(NCc1ccon1)N1CCC(n2ccc(C(F)(F)F)n2)CC1`, the cytotoxicity at 70.5 h is -94.1%. Under `Cn1nc(CNC(=O)CC#N)c2c1CN(CC1CC1)CC2` stands -3.91%.

On to `CN(Cc1cc(Cl)ccc1Cl)Cc1ncnn1C`, for which the cytotoxicity at 70.5 h was -1.99%.

Values taken from ChEMBL document CHEMBL3507680, “University of Dundee, Gates Library screen for HepG2 cell viability”.
